The term IC50 denotes the point on the concentration scale where inhibition reaches its midpoint. A higher IC50 goes with weaker potency. A word on the half-life: it is the time needed for the level to fall by half in the phase considered. Read a low half-life as fast loss. In general, viability refers to the share of living cells, or the viability signal relative to a control.

This is an account of results in US12258424B2, “Polypeptides and compositions comprising the same” (priority 2020, dated 2025).

Positions of bridges follow the written chain, without caps; N, C: chain ends. Residues, ends and D or L forms follow the SMILES beside them.

For data set [1], the target named is T1, recombinant human PD-L1 ECD protein (Homo sapiens, UniProt Q9NZQ7).
T1 construct: against the recombinant human PD-L1 ECD protein were evaluated using SPR; purchased G&P Biosciences FCL0784B
T1 sequence (Q9NZQ7 19-238 limits assumed): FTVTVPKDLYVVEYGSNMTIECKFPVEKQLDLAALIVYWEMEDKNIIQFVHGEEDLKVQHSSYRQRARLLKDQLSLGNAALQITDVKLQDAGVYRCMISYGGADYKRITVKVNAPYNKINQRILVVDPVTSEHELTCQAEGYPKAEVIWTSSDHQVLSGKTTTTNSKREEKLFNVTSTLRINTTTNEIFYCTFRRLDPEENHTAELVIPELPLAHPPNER
The experiment in a line: SPR binding kinetics and affinity to immobilized human PD-L1. As to conditions: read-out: Ka. On the procedure:
In such aspects, the equilibrium dissociate constant KD value against recombinant human PD-L1 can be determined according to an KD to PD-L1 SPR Assay. The KD to PD-L1 SPR Assay can include the use of Surface Plasmon Resonance (SPR), such as the B14500, Biosensing Instrument, and can include the following procedures. The PD-L1 protein can be diluted to 10 μg/mL with sodium acetate buffer (pH 5.0, GE Healthcare, PA) and covalently coated onto a CM5 sensor chip (CM Dextran Sensor Chip, Biosensing Instrument) using the standard Amine Coupling Kit (GE Healthcare, PA). Approximately 6500 RU of PD-L1 protein are immobilized onto the chip. A second channel is used as a reference. HBS-EP+ buffer (GE Healthcare) can be employed at a flow rate of 60 μL/min. A series of concentrations of each peptide (15, 30, 60, 125, 250, 500, 1000, 5000 and 10,000 nM) is prepared in HBS-EP+ running buffer to obtain the equilibrium dissociation constant (KD) values of the peptides. The CM5 sensor chip can be regenerated with 10 mM NaOH for 20 s. The results can be analyzed using the software of Bi data analysis software.
Evaluation of Binding Kinetics and Affinity By Surface Plasmon Resonance (SPR). Binding affinities of the PD-L1 specific peptides for human PD-L1 protein were determined by SPR (B14500, Biosensing Instrument). PD-L1 protein was diluted to 10 μg/mL with sodium acetate buffer (pH 5.0, GE Healthcare, PA) and covalently coated onto a CM5 sensor chip (CM Dextran Sensor Chip, Biosensing Instrument) using the standard Amine Coupling Kit (GE Healthcare, PA). Approximately 6500 RU of PD-L1 protein were immobilized onto the chip. A second channel was used as a reference. HBS-EP+ buffer (GE Healthcare) was employed at a flow rate of 60 μL/min. A series of concentrations of each peptide (15, 30, 60, 125, 250, 500, 1000, 5000 and 10,000 nM) were prepared in HBS-EP+ running buffer to obtain the equilibrium dissociation constant (KD) values of the peptides. The CM5 sensor chip was regenerated with 10 mM NaOH for 20 seconds. The results were analyzed using the software of Bi data analysis software. Binding affinities of the anti-PD-L1 peptides to BSA was also assessed following the procedure for human PD-L1.
On the technique in general: In SPR one partner is held on a chip, and binding of the other changes the refractive index at the surface.

Data set [2] relates to DU145 cancer cell. It counts as cell-based, human. Conditions: DU-145 cancer cells. How it is done:
(§1) Ninety-six-well plates were coated with 100 ng of PD-L1 protein (G&P Biosciences, human PD-L1 ECD, cat #FCL0784B. mouse PD-L1, cat #FCL3502B) and later blocked with 2% BSA for 2 hours at room temperature. Various concentrations of peptides were loaded into the wells and incubated for 1 hour at room temperature. […] Streptavidin-HRP (R & D systems) and chromogenic substrate were added into the wells. OD450 was then recorded and referenced to OD540.
The blocking efficiency of the anti-PD-L1 peptides at 10 μM (FIG. 2c). […] The IC50 of each peptide was also determined using recombinant human PD-L1 protein and DU-145 cancer cells.

The test system of data set [3] is 4T1 cancer cell. It is filed as cell-based, mouse.
Data set [4] deals with human PD-L1/CD80 interaction (Homo sapiens, UniProt Q9NZQ7). The experiment in a line: Blockade of the CD80/PD-L1 interaction. As to conditions: at 10 μM, FIG. 8a. It is filed as binding.
human PD-L1/CD80 interaction, sequence (Q9NZQ7 19-238 limits assumed): as above
The test system of data set [5] is Jurkat T cells co-cultured with DU-145 cancer cells. The experiment in a line: Jurkat T cell proliferation in co-culture with DU-145 cells (CellTiter-Glo). It counts as cell-based, human. Conditions: peptide 5 μM, 24 hours. How it is done:
Proliferation and Apoptosis Assays. […] Briefly, 3×10^4 Jurkat T cells were cultured alone or co-cultured with 1.5×10^5 DU-145 cancer cells in a 24-well plate for the proliferation assay. For the apoptosis assay, 6×10^4 Jurkat T cells were cultured alone or co-cultured with 3×10^5 DU-145 cancer cells in a 6-well plate. After incubation with the anti-PD-L1 peptides (5 μM) or anti-PD-L1 antibody (1 μM) for 24 hours, Jurkat T cells were harvested from the supernatant. Proliferation of Jurkat cells was determined using the CellTiter-Glo luminescent cell viability assay (Promega, WI), and apoptosis of the cells were determined using the Dead Cell Apoptosis Kit with Annexin V Alexa Fluor® 488 and Propidium Iodide (Thermo-Fisher Scientific, Pittsburgh, PA) as we described before^21.

Data set [6] has as its target T2, mPD-L1 (Mus musculus, UniProt Q9EP73). The experiment in a line: Blockade of the mouse PD-1/PD-L1 interaction, mouse PD-L1 protein. It is filed as binding. More on the design: purchased G&P Biosciences FCL3502B (PD-L1). As to conditions: mouse PD-L1 protein. On the procedure:
as §1
Target sequence in this assay (Q9EP73 19-239 limits assumed): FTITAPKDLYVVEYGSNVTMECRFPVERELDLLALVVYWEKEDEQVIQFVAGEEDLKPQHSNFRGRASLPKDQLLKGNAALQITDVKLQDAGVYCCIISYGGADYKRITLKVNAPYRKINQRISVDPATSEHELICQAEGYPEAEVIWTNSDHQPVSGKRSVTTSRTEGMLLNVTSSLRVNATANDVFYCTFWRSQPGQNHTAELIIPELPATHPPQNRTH

Data set [7] deals with T3, hPD-L1 (Homo sapiens, UniProt Q9NZQ7). The experiment in a line: Blockade of the PD-1/PD-L1 interaction, plate coated with human PD-L1 protein. It counts as binding. Details: PD-L1 protein (G&P Biosciences, human PD-L1 ECD, cat #FCL0784B); purchased G&P Biosciences FCL0784B (PD-L1). On the procedure:
as §1

A short description of data set [8]: Proteolytic stability in 50% human serum (LC-MS). It is filed as in vitro ADME. How it is done:
Half-life in 50% human serum. Proteolytic stability of the peptides was investigated using LC-MS. Solutions of the anti-PD-L1 peptides were incubated with 50% human serum at […], aliquots were taken at specific time points for processing and subsequent LC-MS analysis.

Data set [9] in a line: Cell viability of DU145 cells (CellTiter-Glo). It counts as cell-based. As to conditions: human, read-out: % cell viability after incubation with 50 μM peptide. How it is done:
% cell viability after incubation with 50 μM peptide. White 96-well plates with clear bottom (Corning, RFE 3610) were seeded with DU145 cells at a density of 1×10^4 cells/well and incubated in a humidified atmosphere at 37° C. with a supply of 5% CO2. After 12 h, various peptide concentrations were added to the cells and incubated for 48 h. CellTiter-Glo kit (Promega, WI) was employed in the cell viability analysis by following the manufacturer's instructions.

For data set [10], the target named is PD1/PD-L1 (Homo sapiens, UniProt Q9NZQ7). The experiment in a line: IC50 and blocking efficiency against PD1/PD-L1 (Table 5). It counts as binding. How it is done:
(§2) Blocking efficiency at 10 μM/IC50 against human and mouse PD1/PD-L1 (ELISA). […] 100 ng of recombinant human PD-L1 protein was coated in 96-well plates at 4° C. for 16 h with shaking over an orbital shaker. Unbound protein was removed by washing twice with PBS (pH 7.2-7.4), 2% BSA was added for 1.5 h at 37° C. to block the plate. Specific concentrations of the peptides were dispensed into the appropriate wells and incubated for 2 h at 37° C. […] This was followed by the addition of streptavidin-HRP and chromogenic substrate (R & D systems). The color reaction was terminated with 2N H2SO4, absorbance was recorded at OD450 and referenced to OD540.

Data set [11] concerns the target T3, hPD-L1. The experiment in a line: PD-1/PD-L1 inhibitor screening ELISA, human proteins. It counts as binding. Details: purchased Acro Biosystems EP-101. On the procedure: as §2
(In general: In an ELISA, binding on a coated surface is turned into a signal by an enzyme label.)

Data set [12] has as its target T3, hPD-L1. The experiment in a line: Competitive SPR blocking of PD-L1 binding to immobilized PD-1. Details: purchased Acro Biosystems EP-101. On the procedure: % Blocking efficiency at 10 μM (Competitive SPR)/IC50 (competitive SPR) hPD-L1. BI-4500A SPR and a CM-5 sensor chip pre-functionalized with streptavidin (Biosensing Instrument Inc., Tempe, Ariz.) were employed for the SPR analysis. […] Different concentrations of each peptide were incubated with human PD-L1 (AcroBiosystems, cat #EP-101) prior to injection. Human PD-L1 alone was also injected to serve as a control. […] Data was analyzed with SPR Data Analysis Version 3.8.4 (Biosensing Instrument Inc., Tempe, AZ).

Data set [13] addresses T2, mPD-L1. The experiment in a line: PD-1/PD-L1 blocking ELISA, mouse proteins. It is filed as binding. Details: purchased Acro Biosystems PD1-M5220 (PD-L1). On the procedure:
as §2
Target sequence in this assay (Q9EP73 19-238 limits assumed): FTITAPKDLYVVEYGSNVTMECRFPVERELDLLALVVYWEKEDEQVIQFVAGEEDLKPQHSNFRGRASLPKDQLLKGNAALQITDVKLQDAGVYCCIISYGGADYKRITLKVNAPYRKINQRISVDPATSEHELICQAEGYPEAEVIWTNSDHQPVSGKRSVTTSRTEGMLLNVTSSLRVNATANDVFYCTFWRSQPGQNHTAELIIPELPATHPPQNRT

Data set [14] concerns IL-6. As to conditions: cancer patients, Herbst et al. 2014; cited from earlier work.

T3 sequence (Q9NZQ7 19-238 limits assumed): as the sequence (Q9NZQ7 19-238 limits assumed) above
PD1/PD-L1, sequence (Q9NZQ7 19-238 limits assumed): as above

Regarding `C[C@H](NC(=O)[C@H](CCC(N)=O)NC(=O)[C@H](CC(N)=O)NC(=O)[C@H](C)NC(=O)[C@H](Cc1c[nH]cn1)NC(=O)[C@@H]1CCCN1C(=O)[C@H](CCCNC(=N)N)NC(=O)[C@H](Cc1ccccc1)NC(=O)[C@@H]1CCCN1C(=O)[C@H](Cc1ccc(O)cc1)NC(=O)[C@@H](N)Cc1c[nH]cn1)C(=O)N[C@@H](CO)C(=O)O` [CLP001] (H-HYPFRPHANQAS-OH; N-terminus and C-terminus assumed), the kon in [1] turned out to be 5190 M⁻¹ s⁻¹. For the same compound, the “Blocking Efficiency (%)” value in [2] was 0%; in [3] (4T1 cancer cell), 35%; in [6], 34%; in [7] (human PD-L1 protein), 0%. Besides, the IC50 in data set [3] (2 h) was determined as 910 nM. The “Blocking efficiency against CD80/PD-L1 interaction” value in data set [4] is “approximately 17%”. Further, in [5], the “Effect on Jurkat T cell proliferation” value is reported as “did not observe the same effect”. The “Blocking of the human PD-1/PD-L1 interaction (in words)” value in [7] (peptides at 10 μM, FIG. 2c) was “did not block”.
In data set [8], `CC(C)C[C@@H]1NC(=O)[C@H](CC(N)=O)NC(=O)[C@H](Cc2c[nH]c3ccccc23)NC(=O)[C@H]([C@@H](C)O)NC(=O)[C@H](Cc2ccc(O)cc2)NC(=O)[C@H](Cc2ccc(O)cc2)NC(=O)[C@H](CO)NC(=O)[C@H](CCCNC(=N)N)NC(=O)[C@H](Cc2c[nH]cn2)NC(=O)[C@@H](N)CSSC[C@@H](C(=O)O)NC(=O)[C@H](CC(N)=O)NC1=O` [CLP2C14] (H-CHRSYYTWNLNC-OH; disulfide 1-12; N-terminus and C-terminus assumed) returned a half-life of 38.1 min. Besides, in data set [9], the viability at 48 h, 50 µM was approximately 100%. In addition, the “% Blocking efficiency at 10 μM” value in data set [10] was found to be 75%. Further, the “% Blocking efficiency at 10 μM (ELISA) hPD-L1” value in data set [11] is 75.0%. Further, the “% Blocking efficiency at 10 μM (Competitive SPR) hPD-L1” value in [12] is on record as 86.8%. Moreover, in [13], the “% Blocking efficiency at 10 μM (ELISA) mPD-L1” value is 89.3%.
For `CC(C)C[C@H](NC(=O)[C@H](CC(N)=O)NC(=O)[C@H](Cc1c[nH]c2ccccc12)NC(=O)[C@@H]1CSSC[C@H](N)C(=O)N[C@@H](Cc2c[nH]cn2)C(=O)N[C@@H](CCCNC(=N)N)C(=O)N[C@@H](CO)C(=O)N[C@@H](Cc2ccc(O)cc2)C(=O)N[C@@H](Cc2ccc(O)cc2)C(=O)N1)C(=O)N[C@@H](CC(N)=O)C(=O)N[C@H](C(=O)O)[C@@H](C)O` [CLP2C21] (H-CHRSYYCWNLNT-OH; disulfide 1-7; N-terminus and C-terminus assumed), the half-life in [8] amounted to 70.8 min. Also, in data set [9], the viability at 48 h, 50 µM was approximately 100%. The “% Blocking efficiency at 10 μM” value in data set [10] was determined as 78%. Also, the “% Blocking efficiency at 10 μM (ELISA) hPD-L1” value in data set [11] came out at 85.9%. Also, the “% Blocking efficiency at 10 μM (Competitive SPR) hPD-L1” value in data set [12] is 99.4%. In [13], the “% Blocking efficiency at 10 μM (ELISA) mPD-L1” value was found to be 82.6%.
Take “MPDL3280A: anti-PD-L1 antibody MPDL3280A (Herbst et al. 2014)”: the “Expression of IL-6 in the blood” value in [14] is reported as “reduced”.
